Reference: ChEMBL document CHEMBL5338746, “New Generation of sGC Stimulators: Discovery of Imidazo[1,2-a]pyridine Carboxamide BAY 1165747 (BAY-747), a Long-Acting Soluble Guanylate Cyclase Stimulator for the Treatment of Resistant Hypertension” (J Med Chem, 2023)
Activity calls are given as the source filed them. No cut-off for these calls is given here.

Columns and labels:
Rattus norvegicus [1] = experiment: Antihypertensive activity against L-NAME treated renin transgenic Wistar rat cardiovascular disease model assessed as body weight gain at 0.3 mg/kg administered via oral gavage once daily for 21 days; format: functional, organism-based; conditions: time 21.0 day
Rattus norvegicus [2] = experiment: Antihypertensive activity against L-NAME treated renin transgenic Wistar rat cardiovascular disease model assessed as reduction in mortality rate at 0.3 mg/kg administered via oral gavage once daily for 21 days; format: functional, organism-based; conditions: time 21.0 day
Rattus norvegicus [3] = experiment: Antihypertensive activity against L-NAME treated renin transgenic Wistar rat cardiovascular disease model assessed as reduction in mortality rate at 3 mg/kg administered via oral gavage once daily for 21 days; format: functional, organism-based; conditions: time 21.0 day
Rattus norvegicus [4] = experiment: Anti-hypertensive activity against L-NAME treated renin transgenic Wistar rat cardiovascular disease model assessed as increase in plasma cGMP level at 0.3 mg/kg administered once daily via oral gavage upto 21 days (reference value: 572+/-350 pmol/mL); format: functional; conditions: time <= 21 day
Rattus norvegicus [5] = experiment: Anti-hypertensive activity against L-NAME treated renin transgenic Wistar rat cardiovascular disease model assessed as increase in plasma cGMP level at 3 mg/kg administered once daily via oral gavage upto 21 days (reference value: 572+/-350 pmol/mL); format: functional; conditions: time <= 21 day
Rattus norvegicus [6] = experiment: Anti-hypertensive activity against L-NAME treated renin transgenic Wistar rat cardiovascular disease model assessed as change in heart to body weight at 0.3 mg/kg administered once daily via oral gavage upto 21 days (reference value: 4.64+/-0.3 g/Kg); format: functional; conditions: time <= 21 day
Rattus norvegicus [7] = experiment: Anti-hypertensive activity against L-NAME treated renin transgenic Wistar rat cardiovascular disease model assessed as change in heart to body weight at 3 mg/kg administered once daily via oral gavage upto 21 days (reference value: 4.64+/-0.3 g/Kg); format: functional; conditions: time <= 21 day
Rattus norvegicus [8] = experiment: Anti-hypertensive activity against L-NAME treated renin transgenic Wistar rat cardiovascular disease model assessed as reduction in plasma BNP level at 0.3 mg/kg administered once daily via oral gavage upto 21 days (reference value: 403+/-325 pg/ml); format: functional; conditions: time <= 21 day
Rattus norvegicus [9] = experiment: Anti-hypertensive activity against L-NAME treated renin transgenic Wistar rat cardiovascular disease model assessed as reduction in plasma BNP level at 3 mg/kg administered once daily via oral gavage upto 21 days (reference value: 403+/-325 pg/ml); format: functional; conditions: time <= 21 day
Rattus norvegicus [10] = experiment: Anti-hypertensive activity against L-NAME treated renin transgenic Wistar rat cardiovascular disease model assessed as change in kidney to body weight at 0.3 mg/kg administered once daily via oral gavage upto 21 days (reference value: 3.79 +/- 0.1 g/kg); format: functional; conditions: time <= 21 day
Rattus norvegicus [11] = experiment: Anti-hypertensive activity against L-NAME treated renin transgenic Wistar rat cardiovascular disease model assessed as change in kidney to body weight at 3 mg/kg administered once daily via oral gavage upto 21 days (reference value: 3.79 +/- 0.1 g/kg); format: functional; conditions: time <= 21 day
Rattus norvegicus [12] = experiment: Anti-hypertensive activity against L-NAME treated renin transgenic Wistar rat cardiovascular disease model assessed as increase in survival at 0.3 mg/kg administered once daily via oral gavage upto 21 days (reference value: 21%); format: functional; conditions: time <= 21 day
Rattus norvegicus [13] = experiment: Anti-hypertensive activity against L-NAME treated renin transgenic Wistar rat cardiovascular disease model assessed as increase in survival at 3 mg/kg administered once daily via oral gavage upto 21 days (reference value: 21%); format: functional; conditions: time <= 21 day
Rattus norvegicus [14] = experiment: Antihypertensive activity against L-NAME treated renin transgenic Wistar rat cardiovascular disease model assessed as reduction in blood pressure at 3 mg/kg administered via oral gavage once daily for 28 days; format: functional, organism-based; conditions: time 28.0 day
Rattus norvegicus [15] = experiment: Antihypertensive activity against L-NAME treated renin transgenic Wistar rat cardiovascular disease model assessed as reduction in blood pressure at 0.3 mg/kg administered via oral gavage once daily for 28 days; format: functional, organism-based; conditions: time 28.0 day
Rattus norvegicus [16] = experiment: Antihypertensive activity against L-NAME treated renin transgenic Wistar rat cardiovascular disease model assessed as body weight gain at 3 mg/kg administered via oral gavage once daily for 21 days; format: functional, organism-based; conditions: time 21.0 day
Aorta = experiment: Vasorelaxant activity in New Zealand White rabbits aortic rings assessed as reduction in phenylephrine-induced contraction measured after 30 mins; format: functional, tissue-based; conditions: Oryctolagus cuniculus, 0.5 h
Rattus norvegicus [17] = experiment: Antihypertensive activity in spontaneous hypertensive Wistar rat assessed as decrease in systolic blood pressure iv administered as bolus injection measured for 21 days by tail-cuff method; format: functional, organism-based; conditions: dose 0.3-3 mg/kg, time 21.0 day
Rattus norvegicus [18] = experiment: Antihypertensive activity in spontaneous hypertensive Wistar rat assessed as decrease in systolic blood pressure at 0.3 mg/kg, iv administered as bolus injection measured for 21 days by tail-cuff method; format: functional; conditions: time 21 day
Rattus norvegicus [19] = experiment: Antihypertensive activity in spontaneous hypertensive Wistar rat assessed as decrease in systolic blood pressure at 0.003 mg/kg, iv administered as bolus injection measured for 21 days by tail-cuff method (reference value: -12 mmHg); format: functional; conditions: time 21 day
Rattus norvegicus [20] = experiment: Antihypertensive activity in spontaneous hypertensive Wistar rat assessed as decrease in systolic blood pressure at 0.01 mg/kg, iv administered as bolus injection measured for 21 days by tail-cuff method (reference value: -12 mmHg); format: functional; conditions: time 21 day
Rattus norvegicus [21] = experiment: Antihypertensive activity in spontaneous hypertensive Wistar rat assessed as decrease in systolic blood pressure at 0.03 mg/kg, iv administered as bolus injection measured for 21 days by tail-cuff method (reference value: -12 mmHg); format: functional; conditions: time 21 day
Rattus norvegicus [22] = experiment: Antihypertensive activity in spontaneous hypertensive Wistar rat assessed as decrease in systolic blood pressure at 0.1 mg/kg, iv administered as bolus injection measured for 21 days by tail-cuff method (reference value: -12 mmHg); format: functional; conditions: time 21 day
Rattus norvegicus [23] = experiment: Antihypertensive activity in spontaneous hypertensive Wistar rat assessed as decrease in systolic blood pressure at 0.3 mg/kg, iv administered as bolus injection measured for 21 days by tail-cuff method (reference value: -12 mmHg); format: functional; conditions: time 21 day
Rattus norvegicus [24] = experiment: Antihypertensive activity in spontaneous hypertensive Wistar rat model assessed as reduction in blood pressure po administered bolus injection by radiotelemetry analysis; format: functional, organism-based; conditions: dose 0.3 mg/kg
Rattus norvegicus [25] = experiment: Antihypertensive activity in spontaneous hypertensive Wistar rat model assessed as reduction in blood pressure at 0.3 to 3.0 mg/kg, po measured after 2 hrs by radiotelemetry analysis; format: functional; design: scale not given: the % may be the effect or the level left; conditions: dose 0.3-3 mg/kg
Rattus norvegicus [26] = experiment: Antihypertensive activity in spontaneous hypertensive Wistar rat model assessed as reduction in blood pressure at 0.3 mg/kg, po measured after 24 hrs by radiotelemetry analysis; format: functional, organism-based
Rattus norvegicus [27] = experiment: Antihypertensive activity in spontaneous hypertensive Wistar rat model assessed as reduction in blood pressure at 1 mg/kg, po measured after 24 hrs by radiotelemetry analysis; format: functional, organism-based

CC[C@](C)(N)CNC(=O)c1c(C)nc2c(OCc3c(F)cccc3F)cc(C)cn12
Activity (Rattus norvegicus [1]): Active
Activity (Rattus norvegicus [2]): Active
Activity (Rattus norvegicus [3]): Active
Activity (Rattus norvegicus [4]): 1018 pmol/mL
Activity (Rattus norvegicus [5]): 2798 pmol/mL
Activity (Rattus norvegicus [6]): 4.03 g/kg
Activity (Rattus norvegicus [7]): 3.64 g/kg
Activity (Rattus norvegicus [8]): 284 pg/mL
Activity (Rattus norvegicus [9]): 97 pg/mL
Activity (Rattus norvegicus [10]): 3.72 g/kg
Activity (Rattus norvegicus [11]): 3.72 g/kg
Activity (Rattus norvegicus [12]): 44%
Activity (Rattus norvegicus [13]): 78%
Activity (Rattus norvegicus [14]): Active
Activity (Rattus norvegicus [15]): inactive
Activity (Rattus norvegicus [16]): Active
IC50 (Aorta): 27 nM
Activity (Rattus norvegicus [17]): Dose-Dependent Effect
Activity (Rattus norvegicus [18]): -86 mmHg
Activity (Rattus norvegicus [19]): -19 mmHg
Activity (Rattus norvegicus [20]): -22 mmHg
Activity (Rattus norvegicus [21]): -49 mmHg
Activity (Rattus norvegicus [22]): -70 mmHg
Activity (Rattus norvegicus [23]): -86 mmHg
Activity (Rattus norvegicus [24]): Dose-Dependent Effect
Activity (Rattus norvegicus [25]): 10%
Activity (Rattus norvegicus [26]): Active
Activity (Rattus norvegicus [27]): Active
